Laboratory results reported in publication PMC3103436 (Journal of Translational Medicine, 2011).

Tests used:
[1] = system: HLMs; assay: Chemical inhibition assays of BBR metabolism in HLMs; type: in vitro ADME, human; details: BBR 15 μM, inhibitor 5 μM, 30 min, control without inhibitor = 100%
Procedure: (§1) The incubation was performed in duplicates.
The incubations were performed in duplicates.
(§2) The flow-rate was 0.2 ml/min. […] The MS was operated in positive ESI mode. […] Data were analyzed by Xcalibur 1.2 software.

[2] = BBR metabolites in rat liver after oral BBR, LC-MS/MS; type: in vivo, Male Wistar rats; details: 3 hrs after BBR oral administration 200 mg/kg; for Detection of metabolite in rat liver: LC-MS/MS; for Relative level of metabolite in rat liver: among M1-M4
Procedure: Male Wistar rats (200-240 g, 8-week-old) purchased from Vital River Laboratories (Beijing, China) fasted overnight and were free access to water before drug administration. […] 2 g of the liver sample was washed with 5 mL normal saline, cut into small pieces and extracted with 3-fold volume acetonitrile. After vortexed for 3 min, the extract was centrifuged at 16000 g for 15 min at 4°C and the supernatant was diluted with 0.2% acetic acid. Ten microlitre dilution aliquot was injected into the LC-MS/MS system for analysis.
as §2

[3] = system: rCYP450 isoenzymes; assay: Detection of BBR metabolites after incubation with rCYP450 isoenzymes; type: in vitro ADME, human; details: cell-free reaction, LC-MS/MS
Procedure: as §1, §2

[4] = system: LDLR mRNA; assay: LDLR mRNA real-time RT-PCR in HepG2 cells; type: cell-based, human; details: HepG2, 40 μM, 8 hrs
Procedure: (§3) The Human hepatoma cell line HepG2 was obtained from the American Tissue Culture Collection (ATCC, USA). HepG2 cells were grown in Eagle's Minimum Essential Medium (GIBCO) supplemented with 10% fetal bovine serum (GIBCO), 1% non-essential amino acids (GIBCO) and 1% antibiotics (100 units/ml of penicillin and 100 μg/ml of streptomycin), and incubated at 37°C in a humidified atmosphere with 5% CO2.
(§4) The study compounds were diluted in culture medium prior to use.
(§5) Total cellular RNAs were isolated by the Ultraspec RNA lysis solution (Biotecxs Laboratory, Houston, TX) by following the vender's instruction. Total RNAs were reversely transcribed into cDNAs using the Reverse Transcription System (Promega, Madison, WI). Quantitative real time PCR was performed with these cDNAs as described previously, with β-Actin as an internal control. Normalized InsR or LDLR mRNA expression levels were plotted as fold of the untreated control. The primers used were described previously.

[5] = system: AMPK; assay: AMPK-alpha phosphorylation immunoblot in HepG2 cells; type: cell-based, human; details: HepG2, 20 μM, 24 hrs
Procedure: as §3, §4
Sample cells were rinsed with phosphate-buffered saline and lysed in SDS-PAGE loading buffer. Cell lysates were subjected to 8% SDS-PAGE for protein separation, and protein bands were transferred onto polyvinylidene difluoride membranes (Millipore). The amount of protein and extent of phosphorylation were estimated using the following primary rabbit antibodies, anti-phospho-AMPK-α-Thr-172 antibody, anti-AMPK-α antibody as well as anti-β-actin antibody (Cell signaling Technology, USA). The secondary antibody was peroxidase-conjugated goat anti-rabbit antibody (Cell signaling Technology, USA).

[6] = system: human liver microsomes; assay: BBR metabolism in human liver microsomes (HLMs); type: in vitro ADME; details: cell-free reaction, LC-MS/MS
Procedure: Incubation conditions were optimized to ensure the linearity with respect to the microsomal protein concentration and incubation time. […] After incubation of the mixture in a 37°C water bath with opening to the air, the reaction lasted for 30 min and was terminated by addition of 800 μl cold acetonitrile. Internal standard (40 μg/ml ampicillin, dissolved in acetonitrile) was added into the mixture, and then centrifuged at 16000 g for 15 min at 4°C. The supernatant was aspirated, followed by dilution in 0.2% acetic acid. 10 μl of the aliquot was injected into the LC-MS/MS system for analysis. Control samples were incubated without NADPH. The incubation was performed in duplicates.
as §2

[7] = target: T1, CYP2C9 (Homo sapiens, UniProt P11712); assay: BBR metabolism in recombinant human CYP450 isoenzyme; type: in vitro ADME; details: BBR 20 μM, 50 pmol/ml rCYP450, 30 min
T1 construct: purchased BD Gentest; host or cells: baculovirus-insect cells
T1 sequence (P11712 whole entry): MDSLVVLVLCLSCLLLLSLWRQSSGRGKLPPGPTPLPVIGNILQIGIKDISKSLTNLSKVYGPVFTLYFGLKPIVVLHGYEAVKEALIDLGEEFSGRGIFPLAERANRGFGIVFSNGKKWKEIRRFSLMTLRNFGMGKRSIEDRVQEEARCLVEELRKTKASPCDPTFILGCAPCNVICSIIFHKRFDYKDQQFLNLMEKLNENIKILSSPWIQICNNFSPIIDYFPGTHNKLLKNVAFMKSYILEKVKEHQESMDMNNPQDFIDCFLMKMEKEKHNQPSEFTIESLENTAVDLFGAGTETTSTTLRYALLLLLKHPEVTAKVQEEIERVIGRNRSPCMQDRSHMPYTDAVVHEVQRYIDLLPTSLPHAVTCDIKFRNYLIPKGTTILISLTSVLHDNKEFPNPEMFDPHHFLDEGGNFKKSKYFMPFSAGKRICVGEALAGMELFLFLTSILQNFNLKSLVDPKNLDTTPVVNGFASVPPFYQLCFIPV
Procedure: The experiment was performed with the condition described in the method using HLMs for transformation. […] Control microsome prepared from insect cells, which were infected with wild-type baculovirus, severed as a negative control. The incubation was performed in duplicates.
Sample analysis was performed using an LC-MS/MS system (Thermo-Finnigan, San Jose, CA, USA), which consisted of a Surveyor LC pump with an on-line degasser, a Surveyor autosampler and a TSQ Quantum triple-quadrupole mass spectrometer equipped with an ESI probe. A Waters XTerra® MS C18 (2.1 ×50 mm, 3.5 μm) column (Milford, MA, USA) was used for separation at 25°C. The mobile phase consisted of 0.2% acetic acid in water (A) and 100% acetonitrile (B). The flow-rate was 0.2 ml/min. […] The column was allowed to equilibrate for 10 min after each run. Only the data from 2 min to 15 min was acquired by MS. The MS was operated in positive ESI mode. Nitrogen was used as both the sheath and auxiliary gas at a pressure of 35 and 10 arbitrary units, respectively. The spray voltage was set at 4.0 kV and the capillary temperature was at 270°C. […] The most abundant product ion of each chemical was chosen for selected reaction monitoring (SRM). Data were analyzed by Xcalibur 1.2 software.

[8] = system: InsR mRNA; assay: InsR mRNA real-time RT-PCR in HepG2 cells; type: cell-based, human; details: HepG2, 20 μM, 8 hrs, fold of untreated control
Procedure: as §3, §4, §5

[9] = system: InsR; assay: Double immune-staining and flow cytometry, cell-surface protein expression in HepG2; type: cell-based, human; details: HepG2, 8 hrs; BBR 27 μM, simvastatin 1 μM, rosiglitazone 10 μM
Procedure: (§6) The Human hepatoma cell line HepG2 was obtained from the American Tissue Culture Collection (ATCC, USA). […] The study compounds were diluted in culture medium prior to use. […] The corresponding isotype-matched, nonspecific mouse and rabbit IgGs were used respectively as controls for nonspecific staining. After washing in PBS, cells were stained with a fluorescein isothiocyanate (FITC)-conjugated goat anti-mouse IgG (green color, Santa Cruz Biotechnology), as well as a tetramethyl rhodamine isothiocyanate (TRITC)-conjugated goat anti-rabbit IgG (red color, Santa Cruz Biotechnology). The fluorescence intensities were analyzed in a FACS (FACSort, Becton Dickinson).

[10] = system: LDLR; assay: as above; type: cell-based, human; details: HepG2, 8 hrs; BBR 27 μM, simvastatin 1 μM, rosiglitazone 10 μM
Procedure: as §6

[11] = ref [34]; cited from earlier work
[12] = oral administration, cited from earlier work

Structure (SMILES)	Detection of metabolite in rat liver [2]	Detection of metabolite after incubating BBR with rCYP450s [3]	Detection of metabolite after incubating BBR with HLMs [6]	Effect on LDLR mRNA expression [4]	AMPK activation (AMPK-alpha phosphorylation) [5]	Effect on cell-surface InsR protein expression [9]	Effect on cell-surface LDLR protein expression [10]	other results
O=c1cc(-c2ccccc2)oc2c1ccc1ccccc12 [ANF, α-naphthoflavone]								Decrease of M2 formation [1]: about 40%
CC(=O)N1CCN(c2ccc(OCC3COC(Cn4ccnc4)(c4ccc(Cl)cc4Cl)O3)cc2)CC1 (stereo not drawn) [KET, ketoconazole]								Decrease of M2 formation [1]: not
COc1ccc2cc3[n+](cc2c1OC)CCc1cc2c(cc1-3)OCO2 [BBR, Berberine]				strongest up-regulator	most active compound	up-regulatory effect	up-regulatory effect	Transformation of BBR into metabolites by CYP2C9 [7]: very weak effect; Increase of InsR mRNA level [8]: over 2 folds; Share of BBR entering into blood stream (absorption in human gut) [11]: less than 10%; Reduction of blood cholesterol, triglyceride and glucose ([12]; patients with hyperlipidemia and type 2 diabetes, ref [2],[3],[5]-[7]): significant reduction; Side-effects on liver, kidney and muscle ([12]; patients, ref [2],[5]): no side-effects
CCC(C)(C)C(=O)O[C@H]1C[C@@H](C)C=C2C=C[C@H](C)[C@H](CC[C@@H]3C[C@@H](O)CC(=O)O3)[C@H]21 [simvastatin]						not InsR	increased LDLR expression only	
CN(CCOc1ccc(CC2SC(=O)NC2=O)cc1)c1ccccn1 (stereo not drawn) [rosiglitazone]						effect on neither LDLR nor InsR	effect on neither LDLR nor InsR	

Continued, in another order:

Detection of metabolite in rat liver [2]	Detection of metabolite after incubating BBR with rCYP450s [3]	Detection of metabolite after incubating BBR with HLMs [6]	Structure (SMILES)	Effect on LDLR mRNA expression [4]	AMPK activation (AMPK-alpha phosphorylation) [5]	Effect on cell-surface InsR protein expression [9]	Effect on cell-surface LDLR protein expression [10]	other results
detectable	not detectable	not found	COc1cc2c(cc1O)CC[n+]1cc3c(OC)c(OC)ccc3cc1-2 [M4, jatrorrhizine]	without effect	not significant			
detectable	detectable	detectable	COc1ccc2cc3[n+](cc2c1OC)CCc1cc(O)c(O)cc1-3 [M3, demethyleneberberine]	without effect	not significant			
detectable	detectable	detectable	COc1c(O)ccc2cc3[n+](cc12)CCc1cc2c(cc1-3)OCO2 [M2, thalifendine]	remained to be active	increased the activity of AMPK but with a less potency			Relative level of metabolite in rat liver [2]: highest level; LDLR mRNA up-regulating activity as percent of that of BBR [4]: 26%
detectable	not detectable	not found	COc1ccc2cc3[n+](cc2c1O)CCc1cc2c(cc1-3)OCO2 [M1, berberrubine]	remained to be active	increased the activity of AMPK but with a less potency			Relative level of metabolite in rat liver [2]: lowest; LDLR mRNA up-regulating activity as percent of that of BBR [4]: 35%
